{"source": "paper PMC9323733", "about": "“Efficacy of Vafidemstat in Experimental Autoimmune Encephalomyelitis Highlights the KDM1A/RCOR1/HDAC Epigenetic Axis in Multiple Sclerosis” (Pharmaceutics, 2022)", "tested_on": "SH-SY5Y cells", "experiment": "Human H3 acetylation assay (Western blot), cellular HDAC activity", "assay_type": "cell-based", "details": "1 and 0.1 µM, 2 and 6 h", "protocol": "Human H3 acetylation assays: for the determination of global and K9-specific acetylation levels, 500,000 SH-SY5Y cells were seeded in 6-well plates in DMEM/F12 1:1 (Sigma), supplemented with 2 mM glutamine (LabClinics) and 10% FBS (Sigma) and incubated at 37 °C and 5% CO2 in a humid atmosphere. […] After 2 and 6 h of treatment, cells were harvested and centrifuged at 250× g for 4 min at room temperature and cell pellets used for total histone extraction with EpiQuik Total Histone Extraction Kit (Epigentek, Farmingdale, NY, USA) following manufacturer’s instructions. 1 µg of histone extracts were run in MOPS buffer in 12% PAGE (Life Technologies, Carlsbad, CA, USA) and transferred with the iBlot system to nitrocellulose membranes. Transferred blots were stained with the Ponceau S solution (Sigma) and scanned with an Epson Perfection V600 Photo Scanner. Membranes were blocked in blocking buffer (5% skimmed milk in PBS-Tween 0.1%) for 1 h at room temperature, and after blocking blots were incubated with rabbit polyclonal anti-H3K9Ac (1:2000 dilution, Abcam, Cambridge, UK) and rabbit polyclonal anti-H3ac (K9 + K14 + K18 + K23 + K27) (1:2000 dilution, Abcam) overnight at 4 °C in ablocking buffer. […]", "data": [{"smiles": "CCCCCCCCc1ccc(CCC(N)(CO)CO)cc1", "note": "[FTY720, Fingolimod, reference compound]", "values": [{"measurement": "impact on cellular HDAC activity (acetylated H3 or H3K9 levels)", "value": "unable to confirm the previous studies reporting that FTY720 or FTY720-P had any significant impact"}]}]}
